# Data as given in paper PMC4980083 (JCI insight, 2016).
# What was measured:
# GR LBD = target: T1, GR LBD (Homo sapiens, UniProt P04150); assay: Fluorescence polarization competition binding, GR LBD
# T1 sequence (P04150 524-758 limits assumed): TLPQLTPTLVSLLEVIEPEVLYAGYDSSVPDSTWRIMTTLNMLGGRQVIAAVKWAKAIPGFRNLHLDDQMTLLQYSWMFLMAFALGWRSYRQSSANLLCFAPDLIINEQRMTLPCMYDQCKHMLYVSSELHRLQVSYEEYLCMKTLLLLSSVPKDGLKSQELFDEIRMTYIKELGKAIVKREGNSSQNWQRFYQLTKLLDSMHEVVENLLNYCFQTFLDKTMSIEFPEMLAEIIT
# PRβ = target: T2, PRβ (Homo sapiens, UniProt P06401); assay: PR transcriptional activity, PRE luciferase reporter; format: cell-based; conditions: 2 μM; progesterone 10 nM
# T2 sequence (P06401 1-933): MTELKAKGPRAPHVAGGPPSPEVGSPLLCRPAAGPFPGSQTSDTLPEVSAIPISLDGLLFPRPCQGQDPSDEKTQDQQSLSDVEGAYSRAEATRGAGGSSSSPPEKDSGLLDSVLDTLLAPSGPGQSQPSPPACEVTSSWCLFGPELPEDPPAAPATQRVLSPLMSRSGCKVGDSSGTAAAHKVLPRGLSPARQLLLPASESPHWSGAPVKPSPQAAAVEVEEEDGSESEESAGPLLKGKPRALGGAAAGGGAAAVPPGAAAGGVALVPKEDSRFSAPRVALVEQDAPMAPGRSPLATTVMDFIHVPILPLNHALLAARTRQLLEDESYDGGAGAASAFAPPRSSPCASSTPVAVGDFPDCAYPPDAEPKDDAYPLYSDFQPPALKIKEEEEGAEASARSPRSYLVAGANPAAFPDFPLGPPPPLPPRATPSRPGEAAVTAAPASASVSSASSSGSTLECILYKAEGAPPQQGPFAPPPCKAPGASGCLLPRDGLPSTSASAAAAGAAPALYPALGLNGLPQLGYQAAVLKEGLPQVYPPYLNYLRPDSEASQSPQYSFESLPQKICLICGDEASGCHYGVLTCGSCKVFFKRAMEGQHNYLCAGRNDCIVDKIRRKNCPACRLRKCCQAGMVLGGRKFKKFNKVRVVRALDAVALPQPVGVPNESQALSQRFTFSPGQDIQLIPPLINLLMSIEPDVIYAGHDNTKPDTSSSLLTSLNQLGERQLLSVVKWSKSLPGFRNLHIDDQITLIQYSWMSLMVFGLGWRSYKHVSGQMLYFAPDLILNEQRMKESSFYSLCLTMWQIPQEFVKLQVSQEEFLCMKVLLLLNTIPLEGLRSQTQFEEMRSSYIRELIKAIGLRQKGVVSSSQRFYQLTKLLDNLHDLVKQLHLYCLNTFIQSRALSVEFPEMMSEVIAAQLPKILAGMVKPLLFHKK
# [1] = target: T3, full-length AR and AR-V567es (Homo sapiens, UniProt P10275); assay: Probasin luciferase activity in LNCaP cells, full-length AR and AR-V567es; conditions: I-EPI-002 2 μM, enzalutamide 5 μM; presence or absence of androgen
# T3 sequence (P10275 1-920): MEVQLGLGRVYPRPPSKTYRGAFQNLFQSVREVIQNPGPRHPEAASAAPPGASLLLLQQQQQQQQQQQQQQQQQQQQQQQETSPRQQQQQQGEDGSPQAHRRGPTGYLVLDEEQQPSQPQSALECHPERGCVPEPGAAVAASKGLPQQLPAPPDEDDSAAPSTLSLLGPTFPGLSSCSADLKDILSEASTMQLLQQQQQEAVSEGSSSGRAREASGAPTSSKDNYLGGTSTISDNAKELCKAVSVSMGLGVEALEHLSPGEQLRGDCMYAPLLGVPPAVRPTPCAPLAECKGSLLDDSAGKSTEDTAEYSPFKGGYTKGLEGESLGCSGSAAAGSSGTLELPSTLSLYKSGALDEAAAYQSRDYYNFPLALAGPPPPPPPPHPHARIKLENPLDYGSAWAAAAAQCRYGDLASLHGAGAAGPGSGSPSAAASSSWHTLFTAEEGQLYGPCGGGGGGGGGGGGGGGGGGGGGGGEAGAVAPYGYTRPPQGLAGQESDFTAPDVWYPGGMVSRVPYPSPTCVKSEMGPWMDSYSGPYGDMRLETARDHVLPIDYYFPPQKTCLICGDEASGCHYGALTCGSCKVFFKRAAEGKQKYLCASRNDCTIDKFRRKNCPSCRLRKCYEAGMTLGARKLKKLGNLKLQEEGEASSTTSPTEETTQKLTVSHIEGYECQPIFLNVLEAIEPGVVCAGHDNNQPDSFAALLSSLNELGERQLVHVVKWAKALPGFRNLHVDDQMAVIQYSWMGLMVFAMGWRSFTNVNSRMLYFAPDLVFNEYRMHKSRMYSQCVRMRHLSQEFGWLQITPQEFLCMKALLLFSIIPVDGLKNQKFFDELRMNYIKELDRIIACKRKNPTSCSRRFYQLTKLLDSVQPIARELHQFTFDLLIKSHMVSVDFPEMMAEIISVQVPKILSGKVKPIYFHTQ
# T3 sequence (P10275 with tags, fused parts or gaps limits assumed): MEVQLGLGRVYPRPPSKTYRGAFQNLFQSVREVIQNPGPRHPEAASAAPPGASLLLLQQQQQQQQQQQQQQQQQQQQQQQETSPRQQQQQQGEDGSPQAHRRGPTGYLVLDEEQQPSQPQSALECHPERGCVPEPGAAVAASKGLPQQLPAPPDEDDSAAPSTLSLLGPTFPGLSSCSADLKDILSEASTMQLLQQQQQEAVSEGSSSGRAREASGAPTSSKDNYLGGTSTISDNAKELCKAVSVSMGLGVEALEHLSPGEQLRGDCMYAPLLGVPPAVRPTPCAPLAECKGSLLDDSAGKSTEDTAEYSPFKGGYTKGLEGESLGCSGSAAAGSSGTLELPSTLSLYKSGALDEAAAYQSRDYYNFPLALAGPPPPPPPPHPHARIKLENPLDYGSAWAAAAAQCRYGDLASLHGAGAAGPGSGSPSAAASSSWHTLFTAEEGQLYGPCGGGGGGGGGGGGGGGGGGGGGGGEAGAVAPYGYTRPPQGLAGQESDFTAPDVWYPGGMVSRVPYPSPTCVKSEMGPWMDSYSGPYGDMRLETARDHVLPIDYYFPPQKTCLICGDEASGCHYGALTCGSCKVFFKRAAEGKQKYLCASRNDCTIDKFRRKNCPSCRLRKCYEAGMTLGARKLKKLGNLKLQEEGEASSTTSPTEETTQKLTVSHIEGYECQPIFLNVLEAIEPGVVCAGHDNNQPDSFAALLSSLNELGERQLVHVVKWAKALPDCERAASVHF
substance,measurement,setting,value
15-IodoEPI002 [I-EPI-002],competition for ligand binding to GR LBD,GR LBD,did not prevent ligand-binding
same,inhibition of PR transcriptional activity,PRβ,did not inhibit
same,"inhibition of probasin luciferase activity, full-length AR with V567es",[1],showed good inhibition
